# According to patent US6407114B1, “Pyrazolopyrimidinone CGMP PDE5 inhibitors for the treatment of sexual dysfunction” (Pfizer Inc., priority 1998, dated 2002):
# Molecular target: cGMP PDE5 (UniProt O76074)
# Assay: In vitro PDE inhibitory activity against cGMP PDE5
# Format: biochemical
# Details: in vitro inhibition of cGMP PDE5
# Description: In vitro PDE inhibitory activities against cyclic guanosine 3′,5′-monophosphate (cGMP) and cyclic adenosine 3′,5′-monophosphate (cAMP) phosphodiesterases were determined by measurement of their IC50 values (the concentration of compound required for 50% inhibition of enzyme activity).
# The required PDE enzymes were isolated from a variety of sources, including human corpus cavernosum, human and rabbit platelets, human cardiac ventricle, human skeletal muscle and bovine retina, essentially by the method of W. J. Thompson and M. M. Appleman (Biochem., 1971, 10, 311). In particular, the cGMP-specific PDE (PDE5) and the cGMP-inhibited cAMP PDE (PDE3) were obtained from human corpus cavernosum tissue, human platelets or rabbit platelets; the cGMP-stimulated PDE (PDE2) was obtained from human corpus cavernosum; the calcium/calmodulin (Ca/CAM)-dependent PDE (PDE1) from human cardiac ventricle; the cAMP-specific PDE (PDE4) from human skeletal muscle; and the photoreceptor PDE (PDE6) from bovine retina.
# Assays were performed using a modification of the “batch” method of W. J. Thompson et al. (Biochem., 1979, 18, 5228).
row,SMILES,IC50 [nM]
1,"CCCOc1ccc(S(=O)(=O)N2CCN(CC)CC2)cc1-c1nc2c(c(Cc3ccccn3)nn2CCC)c(=O)[nH]1 [Example 1, 6-[5-(4-Ethylpiperazin-1-ylsulphonyl)-2-n-propoxyphenyl]-1-n-propyl-3-(pyridin-2-yl)methyl-1,5-dihydro-4H-pyrazolo[3,4-d]pyrimidin-4-one]",9.3
2,"CCCn1nc(Cc2ccccc2)c2c(=O)[nH]c(-c3cc(S(=O)(=O)N4CCN(C)CC4)ccc3OCC)nc21 [Example 4, 3-Benzyl-6-[2-ethoxy-5-(4-methylpiperazin-1-ylsulphonyl)phenyl]-1-n-propyl-1,5-dihydro-4H-pyrazolo[3,4-d]pyrimidin-4-one]",5.61
3,"CCCOc1ccc(S(=O)(=O)N2CCN(C)CC2)cc1-c1nc2c(c(C)nn2Cc2ccccn2)c(=O)[nH]1 [Example 14, 3-Methyl-6-[5-(4-methylpiperazin-1-ylsulphonyl)-2-n-propoxyphenyl]-1-(pyridin-2-yl)methyl-1,5-dihydro-4H-pyrazolo[3,4-d]pyrimidin-4-one]",4.4
4,"CCOc1ncc(S(=O)(=O)N2CCN(CC)CC2)cc1-c1nc2c(c(-c3ccccc3)nn2CC)c(=O)[nH]1 [Example 21, 6-[2-Ethoxy-5-(4-ethylpiperazin-1-ylsulphonyl)pyridin-3-yl]-1-ethyl-3-phenyl-1,5-dihydro-4H-pyrazolo[3,4-d]pyrimidin-4-one]",4.6

# The next lines start with the values.
row,IC50 [nM],SMILES
1,8.1,"CCOc1ncc(S(=O)(=O)N2CCN(CC)CC2)cc1-c1nc2c(c(-c3cnccn3)nn2CC)c(=O)[nH]1 [Example 18, 6-[2-Ethoxy-5-(4-ethylpiperazin-1-ylsulphonyl)pyridin-3-yl]-1-ethyl-3-(pyrazin-2-yl)-1,5-dihydro-4H-pyrazolo[3,4-d]pyrimidin-4-one]"
2,7.67,"CCCn1nc(-c2cnccn2)c2c(=O)[nH]c(-c3cc(S(=O)(=O)N4CCN(CC)CC4)cnc3OCC)nc21 [Example 19, 6-[2-Ethoxy-5-(4-ethylpiperazin-1-ylsulphonyl)pyridin-3-yl]-1-n-propyl-3-(pyrazin-2-yl)-1,5-dihydro-4H-pyrazolo[3,4-d]pyrimidin-4-one]"
